US10711029B2, “Beta-d-2′-deoxy-2′-alpha-fluoro-2′-beta-c-substituted-4′fluoro-n6-substituted-6-amino-2-substituted purine nucleotides for the treatment of hepatitis c virus infection” (Atea Pharmaceuticals, Inc., priority 2016, dated 2020)

Assays:
[1] = Cytotoxicity in the replicon cells (staining with STT); type: cell-based; details: human, Huh-7 luc/neo ET cells, read-out: HCV Replicon CC50
Procedure: (§1) Huh-7 luc/neo ET cells bearing a discistronic HCV genotype 1b luciferase reporter replicon were plated at 7.5×10^3 cells/mi in duplicate 96-well plates for the parallel determination of antiviral efficacy (EC50) and cytotoxicity (TC50). The plates were cultured for 24 hours prior to the addition of compounds. Six serial one half log dilutions of the test articles (high test concentration of 100.0 μM. or high test concentration of 1.0 μM) and human interferon-alpha2b (high test 10.0 U/ml) were prepared in cell culture medium and added to the cultured cells in triplicate wells for each dilution. Six wells in the test plates received medium alone as an untreated control. Following 72 hours of culture in the presence of compound, one of the plates was used for the determination of cytotoxicity by staining with STT and the other for antiviral efficacy by determination of luciferase reporter activity. Cytotoxicity and efficacy data were collected and imported into a customized Excel workbook for determination of the TC50 and EC50 values.

[2] = biological target: HCV RNA-dependent RNA polymerase (Hepatitis C virus genotype 1a, UniProt P27958); details: Ivanov et al., Russian J. Bioorg. Chem. 2010; cited from earlier work
[3] = tested on: HCV genotype 1b luciferase reporter replicon; assay: HCV replicon assay, antiviral efficacy by luciferase reporter activity; type: cell-based
Procedure: as §1

Huh-7 luc/neo ET cells = assay: Cytotoxicity in the replicon cells (staining with STT); type: cell-based; details: 72 hours, read-out: HCV Replicon CC50
Procedure: as §1

adenosine deaminase = biological target: T1, adenosine deaminase (Homo sapiens, UniProt P00813); details: over a long period (120 minutes); WO 2010/091386; cited from earlier work
T1 sequence (P00813 1-363): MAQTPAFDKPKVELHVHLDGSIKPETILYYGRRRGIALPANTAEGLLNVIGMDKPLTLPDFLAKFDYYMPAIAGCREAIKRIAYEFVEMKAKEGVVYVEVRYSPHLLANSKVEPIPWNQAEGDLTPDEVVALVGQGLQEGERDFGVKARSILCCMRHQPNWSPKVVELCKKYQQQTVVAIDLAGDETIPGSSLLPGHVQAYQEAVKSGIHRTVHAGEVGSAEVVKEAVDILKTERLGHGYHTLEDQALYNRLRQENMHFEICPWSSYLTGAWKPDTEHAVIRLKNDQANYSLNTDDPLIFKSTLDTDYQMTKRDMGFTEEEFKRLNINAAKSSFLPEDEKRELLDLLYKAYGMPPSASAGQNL

HCV RNA-dependent RNA polymerase, sequence (P27958 2421-3011): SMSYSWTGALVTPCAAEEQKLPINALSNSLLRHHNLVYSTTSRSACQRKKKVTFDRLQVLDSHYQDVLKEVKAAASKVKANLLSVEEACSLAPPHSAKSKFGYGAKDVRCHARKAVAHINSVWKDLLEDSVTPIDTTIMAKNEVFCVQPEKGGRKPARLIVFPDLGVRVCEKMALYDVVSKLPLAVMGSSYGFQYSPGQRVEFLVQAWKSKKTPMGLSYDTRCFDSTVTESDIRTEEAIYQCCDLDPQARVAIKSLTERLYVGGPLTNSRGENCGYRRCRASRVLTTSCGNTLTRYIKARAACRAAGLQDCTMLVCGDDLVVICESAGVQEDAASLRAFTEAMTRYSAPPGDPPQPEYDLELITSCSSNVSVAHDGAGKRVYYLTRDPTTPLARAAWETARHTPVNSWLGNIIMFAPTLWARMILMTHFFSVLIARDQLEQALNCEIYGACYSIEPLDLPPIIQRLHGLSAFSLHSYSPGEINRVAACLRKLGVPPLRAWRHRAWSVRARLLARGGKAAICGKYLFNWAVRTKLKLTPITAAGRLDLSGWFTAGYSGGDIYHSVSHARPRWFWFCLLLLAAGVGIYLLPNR

| SMILES | CC50 at 72 h [1] [µM] | Fold increase in activity compared to parent nucleoside [3] | further results |
| --- | --- | --- | --- |
| CN(c1nc(N)nc2c1ncn2[C@@H]1O[C@](F)(CO)C(O)[C@@]1(C)F)C1CC1 (stereo partly drawn) [Cmpd 3] | > 100 |  |  |
| O=c1ccn([C@@H]2O[C@](F)(COP(=O)(O)OP(=O)(O)OP(=O)(O)O)[C@@H](O)[C@H]2O)c(=O)[nH]1 [4′fluorouridine 5′-O-triphosphate] |  |  | inhibition of HCV RNA-dependent RNA polymerase [2]: effective inhibitor |
| CC(C)OC(=O)[C@H](C)N[P@](=O)(OC[C@@]1(F)O[C@@H](n2cnc3c(N(C)C)nc(N)nc32)[C@](C)(F)C1O)Oc1ccccc1 (stereo partly drawn) [Cmpd 16] | > 50 | 40 |  |
| CC(C)OC(=O)[C@H](C)NP(=O)(OC[C@@]1(F)O[C@@H](n2cnc3c(N4CCCC4)nc(N)nc32)[C@](C)(F)C1O)Oc1ccccc1 (stereo partly drawn) [Cmpd 12] | > 10 | >31.3 |  |
| CC(C)OC(=O)[C@H](C)NP(=O)(OC[C@@]1(F)O[C@@H](n2cnc3c(N(C)C4CC4)nc(N)nc32)[C@](C)(F)C1O)Oc1ccccc1 (stereo partly drawn) [Cmpd 4] |  | 667 | CC50 (Huh-7 luc/neo ET cells): > 10 µM |
| CCN(C)c1nc(N)nc2c1ncn2[C@@H]1O[C@](F)(CO)C(O)[C@@]1(C)F (stereo partly drawn) [Cmpd 13] | > 100 |  |  |
| CCN(C)c1nc(N)nc2c1ncn2[C@@H]1O[C@](F)(COP(=O)(N[C@@H](C)C(=O)OC(C)C)Oc2ccccc2)C(O)[C@@]1(C)F (stereo partly drawn) [Cmpd 14] | > 10 | 434 |  |
| CN(C)c1nc(N)nc2[nH]cnc12 [N^6-dimethyl-2,6-diaminopurine] |  |  | deamination by adenosine deaminase (adenosine deaminase): not substantially deaminated |
| CC(C)OC(=O)[C@H](C)N[P@](=O)(OC[C@@]1(F)O[C@@H](n2cnc3c(N(C)C)nc(F)nc32)[C@](C)(F)[C@@H]1O)Oc1ccccc1 [Cmpd 8] | 35.3 | 2521 |  |
| C[C@@]1(F)C(O)[C@@](F)(CO)O[C@H]1n1cnc2c(N3CCCC3)nc(N)nc21 (stereo partly drawn) [Cmpd 11] | > 100 |  |  |
| CNc1nc(F)nc2c1ncn2[C@@H]1O[C@](F)(CO[P@@](=O)(N[C@@H](C)C(=O)OC(C)C)Oc2ccccc2)C(O)[C@@]1(C)F (stereo partly drawn) [Cmpd 17] | > 50 | 4.3 |  |
| CN(C)c1nc(N)nc2c1ncn2[C@@H]1O[C@](F)(CO)C(O)[C@@]1(C)F (stereo partly drawn) [Cmpd 1] | > 100 |  |  |
| CC(C)OC(=O)[C@H](C)NP(=O)(OC[C@@]1(F)O[C@@H](n2cnc3c(N(C)C4CC4)nc(N)nc32)[C@](C)(F)C1O)Oc1ccccc1 (stereo partly drawn) [Cmpd 15] |  | 3332 | CC50 (Huh-7 luc/neo ET cells): > 50 µM |
| CNc1nc(F)nc2c1ncn2[C@@H]1O[C@](F)(CO[P@@](=O)(N[C@@H](C)C(=O)OC(C)C)Oc2ccccc2)[C@@H](O)[C@@]1(C)F [Cmpd 10] | 54 | 4.7 |  |
| CNc1nc(N)nc2c1ncn2[C@@H]1O[C@](F)(CO)C(O)[C@@]1(C)F (stereo partly drawn) [Cmpd 5] | > 100 |  |  |
| CC(C)OC(=O)[C@H](C)NP(=O)(OC[C@@]1(F)O[C@@H](n2cnc3c(N(C)C)nc(N)nc32)[C@](C)(F)C1O)Oc1ccccc1 (stereo partly drawn) [Cmpd 2] | > 10 | 2,941 |  |
| CNc1nc(N)nc2c1ncn2[C@@H]1O[C@](F)(COP(=O)(N[C@@H](C)C(=O)OC(C)C)Oc2ccccc2)C(O)[C@@]1(C)F (stereo partly drawn) [Cmpd 6] | > 10 | 10,000 |  |
